From patent publication US20260041683A1, “Compounds with Anti-Acinetobacter Baumannii Activity” (University of Kentucky Research Foundation, priority 2022, published 2026)
In brackets after ≈: the same amount, converted by molar mass. Read-outs that look alike come from different tables or passages of the source.

How the values were obtained:
Ab ATCC 19606 (strain I) = assay: MIC determination (double dilution, Mueller-Hinton broth); assay type: cell-based, Acinetobacter baumannii; conditions: for MIC: Acinetobacter baumannii, ATCC19606
[1] = test system: Ab ATCC BAA1605 (strain J, multidrug-resistant); assay: MIC determination; assay type: cell-based; conditions: Acinetobacter baumannii
In short: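 Broth double-dilution MIC in Mueller-Hinton broth, 96-well plates, at least in duplicate. Inoculum: colonies grown overnight at 37 °C on MH plates, suspended to OD600 ~0.5 and diluted 1:1000 into serially doubly diluted compound.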

[2] = test system: Ab strain #273 (CDC and FDA AR Bank); assay: MIC determination; assay type: cell-based; conditions: Acinetobacter baumannii; Ab AR Bank #273
Description: (§1) All bacterial strains listed above were stored at −80° C. All strains were streaked on Mueller-Hinton (MH) plates and allowed to grow at 37° C. overnight. Enough colonies were scraped from the plate and suspended in MH broth with vortexing to reach an attenuance at 600 nm (OD600) of ˜0.5. The resulting culture was diluted 1:1000 and added to the prepared serially doubly diluted compound solutions in 96-well plates. For M. smegmatis, a 1:100 dilution of the bacteria was done in MH. All MIC values were determined using 96-well plates with low evaporation seals at least in duplicate. For each row, one well was reserved for sterile control (which consisted of 200 μL of MH medium) and another well was reserved for growth control (which consisted of 100 μL of MH medium seeded with 100 μL of bacterial culture).
(§2) Then all 46 compounds were tested against a broad panel of all 41 Ab strains from the CDC and FDA Antibiotic Resistance (AR) Isolate Bank (Table 2; data shown for 2 representative compounds), which were all highly multidrug-resistant strains, including those resistant to colistin. […] The activity of the monohydrazides was not dependent on the extent (number of resistance mutations) or severity (antibiotic MIC) of resistance. All conclusions made from Table 1 remained valid for all compounds against these 41 additional Ab strains. […] This mechanism of action will be elucidated in the proposed studies.

[3] = test system: Ab strain #274 (CDC and FDA AR Bank); assay: MIC determination; assay type: cell-based; conditions: Acinetobacter baumannii; Ab AR Bank #274
Description: as §1, §2

[4] = test system: Ab strain #275 (CDC and FDA AR Bank); assay: MIC determination; assay type: cell-based; conditions: Acinetobacter baumannii; Ab AR Bank #275
Description: as §1, §2

[5] = test system: Ab strain #277 (CDC and FDA AR Bank); assay: MIC determination; assay type: cell-based; conditions: Acinetobacter baumannii; Ab AR Bank #277
Description: as §1, §2

[6] = test system: Ab strain #278 (CDC and FDA AR Bank); assay: MIC determination; assay type: cell-based; conditions: Acinetobacter baumannii; Ab AR Bank #278
Description: as §1, §2

[7] = test system: Ab strain #280 (CDC and FDA AR Bank); assay: MIC determination; assay type: cell-based; conditions: Acinetobacter baumannii; Ab AR Bank #280
Description: as §1, §2

[8] = test system: Ab strain #281 (CDC and FDA AR Bank); assay: MIC determination; assay type: cell-based; conditions: Acinetobacter baumannii; Ab AR Bank #281
Description: as §1, §2

[9] = test system: Ab strain #283 (CDC and FDA AR Bank); assay: MIC determination; assay type: cell-based; conditions: Acinetobacter baumannii; Ab AR Bank #283
Description: as §1, §2

[10] = test system: Ab strain #285 (CDC and FDA AR Bank); assay: MIC determination; assay type: cell-based; conditions: Acinetobacter baumannii; Ab AR Bank #285
Description: as §1, §2

[11] = test system: Ab strain #286 (CDC and FDA AR Bank); assay: MIC determination; assay type: cell-based; conditions: Acinetobacter baumannii; Ab AR Bank #286
Description: as §1, §2

[12] = test system: Ab strain #287 (CDC and FDA AR Bank); assay: MIC determination; assay type: cell-based; conditions: Acinetobacter baumannii; Ab AR Bank #287
Description: as §1, §2

[13] = test system: Ab strain #290 (CDC and FDA AR Bank); assay: MIC determination; assay type: cell-based; conditions: Acinetobacter baumannii; Ab AR Bank #290
Description: as §1, §2

[14] = test system: Ab strain #295 (CDC and FDA AR Bank); assay: MIC determination; assay type: cell-based; conditions: Acinetobacter baumannii; Ab AR Bank #295
Description: as §1, §2

[15] = test system: Ab strain #296 (CDC and FDA AR Bank); assay: MIC determination; assay type: cell-based; conditions: Acinetobacter baumannii; Ab AR Bank #296
Description: as §1, §2

[16] = test system: Ab strain #297 (CDC and FDA AR Bank); assay: MIC determination; assay type: cell-based; conditions: Acinetobacter baumannii; Ab AR Bank #297
Description: as §1, §2

[17] = test system: Ab strain #298 (CDC and FDA AR Bank); assay: MIC determination; assay type: cell-based; conditions: Acinetobacter baumannii; Ab AR Bank #298
Description: as §1, §2

[18] = test system: Ab strain #299 (CDC and FDA AR Bank); assay: MIC determination; assay type: cell-based; conditions: Acinetobacter baumannii; Ab AR Bank #299
Description: as §1, §2

[19] = test system: Ab strain #301 (CDC and FDA AR Bank); assay: MIC determination; assay type: cell-based; conditions: Acinetobacter baumannii; Ab AR Bank #301
Description: as §1, §2

[20] = test system: Ab strain #305 (CDC and FDA AR Bank); assay: MIC determination; assay type: cell-based; conditions: Acinetobacter baumannii; Ab AR Bank #305
Description: as §1, §2

[21] = test system: Ab strain #313 (CDC and FDA AR Bank); assay: MIC determination; assay type: cell-based; conditions: Acinetobacter baumannii; Ab AR Bank #313
Description: as §1, §2

[22] = Table 1, control strain, read-out: MIC Ab ATCC 19606
[23] = Table 1, multidrug-resistant strain, read-out: MIC Ab ATCC BAA 1605

Row | Structure (SMILES) | MIC (Ab ATCC 19606 (strain I); [22]) [µg/mL] | MIC [1, 23] [µg/mL] | MIC [2] [µg/mL] | MIC [3] [µg/mL] | MIC [4] [µg/mL] | MIC [5] [µg/mL] | MIC [6] [µg/mL] | MIC [7] [µg/mL] | MIC [8] [µg/mL] | MIC [9] [µg/mL] | MIC [10] [µg/mL] | MIC [11] [µg/mL] | MIC [12] [µg/mL] | MIC [13] [µg/mL] | MIC [14] [µg/mL] | MIC [15] [µg/mL] | MIC [16] [µg/mL] | MIC [17] [µg/mL] | MIC [18] [µg/mL] | MIC [19] [µg/mL] | further results
1 | O=C(NNc1ccc(Cl)cc1)c1ccc(F)cn1 [Compound 3e] | 1 (≈ 3.76 µM) | 0.0625 (≈ 0.235 µM) | 0.5 (≈ 1.88 µM) | 0.5 (≈ 1.88 µM) | 0.25 (≈ 0.941 µM) | 0.06 (≈ 0.226 µM) | 0.25 (≈ 0.941 µM) | 0.5 (≈ 1.88 µM) | 0.5 (≈ 1.88 µM) | 0.5 (≈ 1.88 µM) | 0.13 (≈ 0.489 µM) | 0.06 (≈ 0.226 µM) | 0.13 (≈ 0.489 µM) | 0.125 (≈ 0.47 µM) | 0.06 (≈ 0.226 µM) | 0.06 (≈ 0.226 µM) | 0.25 (≈ 0.941 µM) | 0.25 (≈ 0.941 µM) | 0.13 (≈ 0.489 µM) | 0.25 (≈ 0.941 µM) | MIC (Ab ATCC 19606 (strain I); Table 5, Mueller-Hinton medium, I = A. baumannii ATCC 19606, read-out: MIC strain I): 1 µg/mL (≈ 3.76 µM); MIC under conditions used to generate biofilm (Ab ATCC 19606 (strain I); trypticase soy broth (TSB) medium): 0.5 µg/mL (≈ 1.88 µM); MIC ([1]; Table 5, Mueller-Hinton medium, J = A. baumannii BAA1605, read-out: MIC strain J): ≤ 0.125 µg/mL; MIC [20]: 0.5 µg/mL (≈ 1.88 µM); MIC [21]: 0.25 µg/mL (≈ 0.941 µM)
2 | O=C(NNc1cccc(F)c1)c1cnccn1 [Compound 9a] | 0.5 (≈ 2.15 µM) | 0.5 (≈ 2.15 µM) | 1 (≈ 4.31 µM) | 1 (≈ 4.31 µM) | 0.5 (≈ 2.15 µM) | 1 (≈ 4.31 µM) | 1 (≈ 4.31 µM) | 1 (≈ 4.31 µM) | 0.5 (≈ 2.15 µM) | 0.25 (≈ 1.08 µM) | 0.5 (≈ 2.15 µM) | 1 (≈ 4.31 µM) | 0.5 (≈ 2.15 µM) | 1 (≈ 4.31 µM) | ≤ 0.13 | ≤ 0.13 | 0.5 (≈ 2.15 µM) | 0.5 (≈ 2.15 µM) | 0.25 (≈ 1.08 µM) | 0.25 (≈ 1.08 µM) | MIC [20]: 0.5 µg/mL (≈ 2.15 µM); MIC [21]: 0.25 µg/mL (≈ 1.08 µM)
